Legend:
Experiment in all cases: relative viability (nuclei count vs DMSO), 5 days (fraction); higher = more cells survive
201T = test system: 201T
Method in brief: (§1)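 One day after seeding in 1536-well plates, lung cancer cell lines were dosed by pin tool. Dosing was either single-drug or a fixed anchor-drug dose plus five library-drug doses (not always all listed) in √10 steps. After 5 days, nuclei were stained in one fix-and-stain step and counted on 4× images, and relative viability is the nuclei count of treated wells over that of vehicle wells, given as the median of duplicate plates.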

BEN = test system: BEN
Method in brief: as §1

EMC-BAC-2 = test system: EMC-BAC-2
Method in brief: as §1

HARA = test system: HARA
Method in brief: as §1

HCC-44 = test system: HCC-44
Method in brief: as §1

LCLC-103H = test system: LCLC-103H
Method in brief: as §1

LOU-NH91 = test system: LOU-NH91
Method in brief: as §1

NCI-H1666 = test system: NCI-H1666
Method in brief: as §1

NCI-H1993 = test system: NCI-H1993
Method in brief: as §1

NCI-H2009 = test system: NCI-H2009
Method in brief: as §1

NCI-H2023 = test system: NCI-H2023
Method in brief: as §1

NCI-H2087 = test system: NCI-H2087
Method in brief: as §1

NCI-H2126 = test system: NCI-H2126
Method in brief: as §1

NCI-H2347 = test system: NCI-H2347
Method in brief: as §1

NCI-H23 = test system: NCI-H23
Method in brief: as §1

NCI-H3122 = test system: NCI-H3122
Method in brief: as §1

NCI-H441 = test system: NCI-H441
Method in brief: as §1

NCI-H596 = test system: NCI-H596
Method in brief: as §1

NCI-H647 = test system: NCI-H647
Method in brief: as §1

NCI-H650 = test system: NCI-H650
Method in brief: as §1

NCI-H727 = test system: NCI-H727
Method in brief: as §1

NCI-H838 = test system: NCI-H838
Method in brief: as §1

Work on `C=C1C(=O)O[C@@H](CCCCCCCC)[C@@H]1C(=O)O` [C-75] + CC(C)C[C@H](NC(=O)[C@H](Cc1ccccc1)NC(=O)c1cnccn1)B(O)O [Bortezomib] (partner 0.002 µM) yielded a relative viability (201T; first compound 0.08 µM) of 1.07, a relative viability (201T; first compound 0.253 µM) of 1.24 and a relative viability (201T; first compound 0.8 µM) of 1.08. For the same compound, the relative viability (201T; first compound 2.53 µM) was 1.15, the relative viability (201T; first compound 8 µM) was 1.08 and the relative viability (BEN; first compound 0.08 µM) was 0.847. For the same compound, the relative viability (BEN; first compound 0.253 µM) was 0.868, the relative viability (BEN; first compound 0.8 µM) was 0.666 and the relative viability (BEN; first compound 2.53 µM) was 0.639. For the same compound, the relative viability (BEN; first compound 8 µM) was 0.653, the relative viability (EMC-BAC-2; first compound 0.08 µM) was 1.1 and the relative viability (EMC-BAC-2; first compound 0.253 µM) was 1.05. The relative viability (EMC-BAC-2; first compound 0.8 µM) was 1.11, the relative viability (EMC-BAC-2; first compound 2.53 µM) was 0.914 and the relative viability (EMC-BAC-2; first compound 8 µM) was 1.13. The relative viability (HARA; first compound 0.08 µM) was 1.14, the relative viability (HARA; first compound 0.253 µM) was 1.22 and the relative viability (HARA; first compound 0.8 µM) was 1.07. The relative viability (HARA; first compound 8 µM) was 1.26, the relative viability (HCC-44; first compound 0.08 µM) was 0.885 and the relative viability (HCC-44; first compound 0.253 µM) was 0.863. The relative viability (HCC-44; first compound 0.8 µM) was 0.857, the relative viability (HCC-44; first compound 2.53 µM) was 0.714 and the relative viability (HCC-44; first compound 8 µM) was 0.89. The relative viability (LCLC-103H; first compound 0.08 µM) was 1.23, the relative viability (LCLC-103H; first compound 0.253 µM) was 0.907 and the relative viability (LCLC-103H; first compound 0.8 µM) was 1.06. It also gave a relative viability (LCLC-103H; first compound 2.53 µM) of 0.811, a relative viability (LCLC-103H; first compound 8 µM) of 1.18 and a relative viability (LOU-NH91; first compound 0.08 µM) of 0.47. For the same compound, the relative viability (LOU-NH91; first compound 0.253 µM) was 0.495, the relative viability (LOU-NH91; first compound 0.8 µM) was 0.454 and the relative viability (LOU-NH91; first compound 2.53 µM) was 0.346. For the same compound, the relative viability (LOU-NH91; first compound 8 µM) was 0.394, the relative viability (NCI-H1666; first compound 0.08 µM) was 0.888 and the relative viability (NCI-H1666; first compound 0.253 µM) was 0.948. The relative viability (NCI-H1666; first compound 0.8 µM) was 0.7, the relative viability (NCI-H1666; first compound 2.53 µM) was 0.7 and the relative viability (NCI-H1666; first compound 8 µM) was 0.641. The relative viability (NCI-H1993; first compound 0.08 µM) was 0.951, the relative viability (NCI-H1993; first compound 0.253 µM) was 1.24 and the relative viability (NCI-H1993; first compound 0.8 µM) was 1.08. It also gave a relative viability (NCI-H1993; first compound 2.53 µM) of 0.54, a relative viability (NCI-H1993; first compound 8 µM) of 1.09 and a relative viability (NCI-H2009; first compound 0.08 µM) of 1.03. The relative viability (NCI-H2009; first compound 0.253 µM) was 1.06, the relative viability (NCI-H2009; first compound 0.8 µM) was 0.927 and the relative viability (NCI-H2009; first compound 2.53 µM) was 0.826. The relative viability (NCI-H2009; first compound 8 µM) was 0.866, the relative viability (NCI-H2023; first compound 0.08 µM) was 1.04 and the relative viability (NCI-H2023; first compound 0.253 µM) was 1.22. It also gave a relative viability (NCI-H2023; first compound 0.8 µM) of 0.902, a relative viability (NCI-H2023; first compound 2.53 µM) of 0.843 and a relative viability (NCI-H2023; first compound 8 µM) of 0.835. The relative viability (NCI-H2087; first compound 0.08 µM) was 0.724, the relative viability (NCI-H2087; first compound 0.253 µM) was 0.863 and the relative viability (NCI-H2087; first compound 0.8 µM) was 0.743. For the same compound, the relative viability (NCI-H2087; first compound 2.53 µM) was 0.396, the relative viability (NCI-H2087; first compound 8 µM) was 0.581 and the relative viability (NCI-H2126; first compound 0.08 µM) was 1.1. It also gave a relative viability (NCI-H2126; first compound 0.253 µM) of 1.29, a relative viability (NCI-H2126; first compound 0.8 µM) of 1.09 and a relative viability (NCI-H2126; first compound 2.53 µM) of 0.886. The relative viability (NCI-H2126; first compound 8 µM) was 1.08, the relative viability (NCI-H2347; first compound 0.08 µM) was 1.06 and the relative viability (NCI-H2347; first compound 0.253 µM) was 1.09. For the same compound, the relative viability (NCI-H2347; first compound 2.53 µM) was 0.851, the relative viability (NCI-H2347; first compound 8 µM) was 0.741 and the relative viability (NCI-H23; first compound 0.08 µM) was 0.953. It also gave a relative viability (NCI-H23; first compound 0.253 µM) of 1.07, a relative viability (NCI-H23; first compound 0.8 µM) of 0.962 and a relative viability (NCI-H23; first compound 2.53 µM) of 0.865. For the same compound, the relative viability (NCI-H23; first compound 8 µM) was 0.696, the relative viability (NCI-H3122; first compound 0.08 µM) was 1.01 and the relative viability (NCI-H3122; first compound 0.253 µM) was 0.987. The relative viability (NCI-H3122; first compound 0.8 µM) was 0.989, the relative viability (NCI-H3122; first compound 8 µM) was 1.04 and the relative viability (NCI-H441; first compound 0.08 µM) was 0.497. The relative viability (NCI-H441; first compound 0.253 µM) was 0.259, the relative viability (NCI-H441; first compound 0.8 µM) was 0.447 and the relative viability (NCI-H441; first compound 2.53 µM) was 0.315. It also gave a relative viability (NCI-H441; first compound 8 µM) of 0.26, a relative viability (NCI-H596; first compound 0.08 µM) of 1.18 and a relative viability (NCI-H596; first compound 0.253 µM) of 1.18. For the same compound, the relative viability (NCI-H596; first compound 0.8 µM) was 0.871, the relative viability (NCI-H596; first compound 2.53 µM) was 0.996 and the relative viability (NCI-H596; first compound 8 µM) was 0.988. The relative viability (NCI-H647; first compound 0.08 µM) was 0.836, the relative viability (NCI-H647; first compound 0.253 µM) was 1.1 and the relative viability (NCI-H647; first compound 2.53 µM) was 0.869. For the same compound, the relative viability (NCI-H647; first compound 8 µM) was 0.809, the relative viability (NCI-H650; first compound 0.08 µM) was 0.828 and the relative viability (NCI-H650; first compound 0.253 µM) was 0.691. For the same compound, the relative viability (NCI-H650; first compound 0.8 µM) was 0.547, the relative viability (NCI-H650; first compound 2.53 µM) was 0.745 and the relative viability (NCI-H650; first compound 8 µM) was 0.586. For the same compound, the relative viability (NCI-H727; first compound 0.08 µM) was 0.773, the relative viability (NCI-H727; first compound 0.253 µM) was 1.32 and the relative viability (NCI-H727; first compound 0.8 µM) was 0.614. The relative viability (NCI-H727; first compound 2.53 µM) was 0.582, the relative viability (NCI-H727; first compound 8 µM) was 0.99 and the relative viability (NCI-H838; first compound 0.08 µM) was 0.66. For the same compound, the relative viability (NCI-H838; first compound 0.253 µM) was 0.588, the relative viability (NCI-H838; first compound 0.8 µM) was 0.8 and the relative viability (NCI-H838; first compound 2.53 µM) was 0.656. The relative viability (NCI-H838; first compound 8 µM) was 0.684.

— the supplement of paper PMC10307832
